Test results taken from article PMC10787880, “Structural and functional characterization of a new thermophilic-like OYE from Aspergillus flavus” (Applied Microbiology and Biotechnology, 2024).

Biological target: T1, AfOYE1 (Aspergillus flavus, UniProt B8N8Q9)
T1 construct: gene afvA; codon-optimised gene in pET28b, E. coli BL21(DE3); N-terminal His6-TEV tag, cut by TEV protease; about 43 kDa; dimer in the crystal; non-covalent FMN
Test: X-ray crystal structure […] Å; UV-visible spectrum of released flavin
Assay type: binding
Conditions: non-covalent prosthetic group, active site; chloride and ethylene glycol also in site

T1 sequence (B8N8Q9 whole entry): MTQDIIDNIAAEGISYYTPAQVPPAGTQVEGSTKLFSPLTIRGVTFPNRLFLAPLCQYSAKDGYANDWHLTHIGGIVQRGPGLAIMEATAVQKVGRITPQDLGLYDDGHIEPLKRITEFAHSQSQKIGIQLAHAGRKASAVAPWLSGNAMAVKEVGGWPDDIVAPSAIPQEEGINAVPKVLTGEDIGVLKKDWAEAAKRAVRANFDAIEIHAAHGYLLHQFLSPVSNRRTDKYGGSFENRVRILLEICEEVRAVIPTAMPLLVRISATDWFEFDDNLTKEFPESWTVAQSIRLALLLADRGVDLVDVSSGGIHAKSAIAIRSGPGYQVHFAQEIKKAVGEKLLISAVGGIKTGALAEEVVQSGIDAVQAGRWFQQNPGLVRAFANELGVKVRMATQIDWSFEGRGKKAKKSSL

Structure (SMILES): Cc1cc2nc3c(=O)[nH]c(=O)nc-3n(C[C@H](O)[C@H](O)[C@H](O)COP(=O)(O)O)c2cc1C [FMN]
- X-ray crystal structure 1.55 Å; UV-visible spectrum of released flavin: On the top of the β-barrel core of each monomer encircles one FMN cofactor
